# Measured values reported in ChEMBL document CHEMBL5055672, “Design, Synthesis, Biological Evaluation, and Computational Studies of Novel Fluorinated Candidates as PI3K Inhibitors: Targeting Fluorophilic Binding Sites” (J Med Chem, 2021).
# Assays:
# [1] = system: HOP-62; test: Cytotoxicity against human HOP-62 cells assessed as growth inhibition at 10 uM after 48 hrs by sulforhodamine B assay; assay type: functional; details: read-out: GI
# [2] = system: ACHN; test: Cytotoxicity against human ACHN cells assessed as growth inhibition at 10 uM after 48 hrs by sulforhodamine B assay; assay type: functional; details: read-out: GI
# [3] = Cytotoxicity against human Hs 578T cells assessed as growth inhibition at 10 uM after 48 hrs by sulforhodamine B assay; assay type: functional; details: read-out: GI
# [4] = system: LOX IMVI; test: Cytotoxicity against human LOX IMVI cells assessed as growth inhibition at 10 uM after 48 hrs by sulforhodamine B assay; assay type: functional; details: read-out: GI
# [5] = system: NCI-H460; test: Cytotoxicity against human NCI-H460 cells assessed as growth inhibition at 10 uM after 48 hrs by sulforhodamine B assay; assay type: functional; details: read-out: GI
# [6] = system: NCI-H522; test: Cytotoxicity against human NCI-H522 cells assessed as growth inhibition at 10 uM after 48 hrs by sulforhodamine B assay; assay type: functional; details: read-out: GI
# [7] = system: MOLT-4; test: Cytotoxicity against human MOLT-4 cells assessed as growth inhibition at 10 uM after 48 hrs by sulforhodamine B assay; assay type: functional; details: read-out: GI
# [8] = system: CCRF-CEM; test: Cytotoxicity against human CCRF-CEM cells assessed as growth inhibition at 10 uM after 48 hrs by sulforhodamine B assay; assay type: functional; details: read-out: GI
# [9] = system: OVCAR-8; test: Cytotoxicity against human OVCAR8 cells assessed as growth inhibition at 10 uM after 48 hrs by sulforhodamine B assay; assay type: functional; details: read-out: GI
# [10] = system: MCF7; test: Induction of cell cycle arrest in human MCF7 cells assessed as accumulation of cells at G1 phase at IC50 concentration by Propidium iodide staining based flow cytometric analysis (reference value: 61.45%); assay type: functional
# [11] = system: SF-295; test: Cytotoxicity against human SF-295 cells assessed as growth inhibition at 10 uM after 48 hrs by sulforhodamine B assay; assay type: functional; details: read-out: GI
# [12] = system: K562; test: Cytotoxicity against human K562 cells assessed as growth inhibition at 10 uM after 48 hrs by sulforhodamine B assay; assay type: functional; details: read-out: GI
# [13] = system: U-251; test: Cytotoxicity against human U-251 cells assessed as growth inhibition at 10 uM after 48 hrs by sulforhodamine B assay; assay type: functional; details: read-out: GI
# [14] = system: MCF7; test: Induction of cell cycle arrest in human MCF7 cells assessed as accumulation of cells at G phase at IC50 concentration by Propidium iodide staining based flow cytometric analysis (reference value: 1.76%); assay type: functional
# [15] = system: SR; test: Cytotoxicity against human SR cells assessed as growth inhibition at 10 uM after 48 hrs by sulforhodamine B assay; assay type: functional; details: read-out: GI
# [16] = system: UACC-62; test: Cytotoxicity against human UACC-62 cells assessed as growth inhibition at 10 uM after 48 hrs by sulforhodamine B assay; assay type: functional; details: read-out: GI
# [17] = system: MDA-MB-231; test: Cytotoxicity against human MDA-MB-231 cells assessed as growth inhibition at 10 uM after 48 hrs by sulforhodamine B assay; assay type: functional; details: read-out: GI
# [18] = system: HCT-116; test: Cytotoxicity against human HCT-116 cells assessed as growth inhibition at 10 uM after 48 hrs by sulforhodamine B assay; assay type: functional; details: read-out: GI
# [19] = target: Phosphatidylinositol 4,5-bisphosphate 3-kinase catalytic subunit alpha isoform (Homo sapiens, UniProt P42336); test: Inhibition of PI3Kalpha (unknown origin) using PIP2 as substrate preincubated for 10 mins followed by substrate addition and measured after 1 hr by ELISA
# Chain of Phosphatidylinositol 4,5-bisphosphate 3-kinase catalytic subunit alpha isoform (P42336 whole entry, canonical isoform): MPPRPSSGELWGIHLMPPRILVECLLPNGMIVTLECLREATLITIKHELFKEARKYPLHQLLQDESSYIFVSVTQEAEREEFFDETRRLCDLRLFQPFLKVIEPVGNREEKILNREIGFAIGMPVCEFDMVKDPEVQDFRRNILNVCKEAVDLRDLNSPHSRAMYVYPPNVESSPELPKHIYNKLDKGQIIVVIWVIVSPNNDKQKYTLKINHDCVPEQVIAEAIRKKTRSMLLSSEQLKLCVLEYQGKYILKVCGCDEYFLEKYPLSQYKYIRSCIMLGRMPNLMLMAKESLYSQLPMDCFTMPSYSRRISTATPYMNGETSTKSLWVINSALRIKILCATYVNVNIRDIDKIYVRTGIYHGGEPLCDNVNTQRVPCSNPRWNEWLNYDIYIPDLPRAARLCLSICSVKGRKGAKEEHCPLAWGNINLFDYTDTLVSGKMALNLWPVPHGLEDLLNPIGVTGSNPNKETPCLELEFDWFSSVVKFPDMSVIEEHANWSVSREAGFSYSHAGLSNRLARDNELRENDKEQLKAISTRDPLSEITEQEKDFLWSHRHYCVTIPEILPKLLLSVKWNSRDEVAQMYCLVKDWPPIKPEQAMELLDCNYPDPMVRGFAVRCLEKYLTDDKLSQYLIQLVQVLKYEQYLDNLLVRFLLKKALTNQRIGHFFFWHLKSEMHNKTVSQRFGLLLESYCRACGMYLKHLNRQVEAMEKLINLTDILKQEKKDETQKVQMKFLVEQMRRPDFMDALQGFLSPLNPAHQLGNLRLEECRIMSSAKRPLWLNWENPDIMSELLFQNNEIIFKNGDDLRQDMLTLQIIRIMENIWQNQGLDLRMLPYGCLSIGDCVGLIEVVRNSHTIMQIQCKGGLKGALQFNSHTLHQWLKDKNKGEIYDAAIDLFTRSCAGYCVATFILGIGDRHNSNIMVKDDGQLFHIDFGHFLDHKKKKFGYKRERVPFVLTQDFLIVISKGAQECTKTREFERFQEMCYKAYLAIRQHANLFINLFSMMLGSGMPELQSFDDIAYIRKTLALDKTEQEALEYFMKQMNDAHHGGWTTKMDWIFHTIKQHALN
# [20] = system: A549; test: Cytotoxicity against human A549 cells assessed as growth inhibition at 10 uM after 48 hrs by sulforhodamine B assay; assay type: functional; details: read-out: GI
# [21] = system: HOP-92; test: Cytotoxicity against human HOP-92 cells assessed as growth inhibition at 10 uM after 48 hrs by sulforhodamine B assay; assay type: functional; details: read-out: GI
# [22] = system: SNB-19; test: Cytotoxicity against human SNB-19 cells assessed as growth inhibition at 10 uM after 48 hrs by sulforhodamine B assay; assay type: functional; details: read-out: GI
# [23] = system: MDA-MB-468; test: Cytotoxicity against human MDA-MB-468 cells assessed as growth inhibition at 10 uM after 48 hrs by sulforhodamine B assay; assay type: functional; details: read-out: GI
# [24] = system: MCF-10A; test: Cytotoxicity against human MCF10A cells assessed as inhibition of cell growth incubated for 48 hrs by MTT assay; assay type: cell-based
# [25] = system: MCF7; test: Antiproliferative activity against human MCF7 cells assessed as inhibition of cell growth incubated for 48 hrs by MTT assay; assay type: functional, cell-based; details: MCF7, 48 h
# [26] = target: Phosphatidylinositol 4,5-bisphosphate 3-kinase catalytic subunit beta isoform (Homo sapiens, UniProt P42338); test: Inhibition of PI3Kbeta (unknown origin) using PIP2 as substrate preincubated for 10 mins followed by substrate addition and measured after 1 hr by ELISA
# Chain of Phosphatidylinositol 4,5-bisphosphate 3-kinase catalytic subunit beta isoform (P42338 whole entry, canonical isoform): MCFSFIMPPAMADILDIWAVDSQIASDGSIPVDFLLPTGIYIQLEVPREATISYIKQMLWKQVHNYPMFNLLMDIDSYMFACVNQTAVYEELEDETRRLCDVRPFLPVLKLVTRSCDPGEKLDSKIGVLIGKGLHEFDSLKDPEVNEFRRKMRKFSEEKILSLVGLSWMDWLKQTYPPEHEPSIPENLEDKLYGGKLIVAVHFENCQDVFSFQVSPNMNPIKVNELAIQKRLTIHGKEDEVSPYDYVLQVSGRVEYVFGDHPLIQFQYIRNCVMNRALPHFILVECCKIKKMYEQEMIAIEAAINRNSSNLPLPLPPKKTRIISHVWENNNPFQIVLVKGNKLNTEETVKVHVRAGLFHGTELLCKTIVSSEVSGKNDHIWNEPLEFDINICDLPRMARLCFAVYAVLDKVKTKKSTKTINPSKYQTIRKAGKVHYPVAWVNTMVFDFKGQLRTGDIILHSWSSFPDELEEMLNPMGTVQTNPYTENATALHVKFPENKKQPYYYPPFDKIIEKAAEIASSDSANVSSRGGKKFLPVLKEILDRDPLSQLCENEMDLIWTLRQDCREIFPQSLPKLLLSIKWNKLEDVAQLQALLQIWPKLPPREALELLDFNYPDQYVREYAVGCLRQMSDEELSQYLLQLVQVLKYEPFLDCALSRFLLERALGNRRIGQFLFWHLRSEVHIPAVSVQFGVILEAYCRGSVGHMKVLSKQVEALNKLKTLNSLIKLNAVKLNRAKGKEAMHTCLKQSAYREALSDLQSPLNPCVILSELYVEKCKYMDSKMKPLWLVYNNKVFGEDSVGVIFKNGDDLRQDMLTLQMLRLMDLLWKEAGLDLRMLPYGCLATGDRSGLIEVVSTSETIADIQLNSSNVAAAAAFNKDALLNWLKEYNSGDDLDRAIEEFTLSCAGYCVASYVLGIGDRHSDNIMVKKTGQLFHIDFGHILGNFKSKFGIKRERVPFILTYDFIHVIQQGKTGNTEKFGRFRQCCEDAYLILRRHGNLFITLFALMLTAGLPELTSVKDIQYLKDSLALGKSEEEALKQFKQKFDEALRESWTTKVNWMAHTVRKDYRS
# [27] = system: HCT-15; test: Cytotoxicity against human HCT-15 cells assessed as growth inhibition at 10 uM after 48 hrs by sulforhodamine B assay; assay type: functional; details: read-out: GI
# [28] = system: SNB-75; test: Cytotoxicity against human SNB-75 cells assessed as growth inhibition at 10 uM after 48 hrs by sulforhodamine B assay; assay type: functional; details: read-out: GI
# [29] = system: MCF7; test: Induction of apoptosis in human MCF7 cells assessed as necrotic cells at 13.30 uM after 48 hrs by annexin V-FITC/propidium iodide staining based flow cytometric analysis (reference value: 1.26%); assay type: functional; details: dose 13.3 µM
# [30] = system: SW-620; test: Cytotoxicity against human SW-620 cells assessed as growth inhibition at 10 uM after 48 hrs by sulforhodamine B assay; assay type: functional; details: read-out: GI
# [31] = system: MCF7; test: Induction of apoptosis in human MCF7 cells assessed as late apoptotic cells at 13.30 uM after 48 hrs by annexin V-FITC/propidium iodide staining based flow cytometric analysis (reference value: 0.14%); assay type: functional; details: dose 13.3 µM
smiles,measurement,setting,value
COC(=O)/C=C1\S/C(=N\N=C\c2ccc(OCC(F)(F)F)cc2)N(c2ccccc2)C1=O,inhibition of growth at 10 µM,[1],31.5%
same,inhibition of growth at 10 µM,[2],24%
same,inhibition of growth at 10 µM,[3],43%
same,inhibition of growth at 10 µM,[4],24.1%
same,inhibition of growth at 10 µM,[5],14.2%
same,inhibition of growth at 10 µM,[6],12.2%
same,inhibition of growth at 10 µM,[7],13.4%
same,inhibition of growth at 10 µM,[8],13.5%
same,inhibition of growth at 10 µM,[9],35.5%
same,Activity,[10],55.47%
same,inhibition of growth at 10 µM,[11],13.2%
same,inhibition of growth at 10 µM,[12],25.7%
same,inhibition of growth at 10 µM,[13],23.1%
same,Activity,[14],19.52%
same,inhibition of growth at 10 µM,[15],24.7%
same,inhibition of growth at 10 µM,[16],18.9%
same,inhibition of growth at 10 µM,[17],21.5%
same,inhibition of growth at 10 µM,[18],28.8%
same,IC50,[19],77.5 µM
same,inhibition of growth at 10 µM,[20],15.3%
same,inhibition of growth at 10 µM,[21],20.1%
same,inhibition of growth at 10 µM,[22],18.2%
same,inhibition of growth at 10 µM,[23],47.6%
same,IC50,[24],24.2 µM
same,IC50,[25],13.3 µM
same,IC50,[26],53.5 µM
same,inhibition of growth at 10 µM,[27],17.3%
same,inhibition of growth at 10 µM,[28],28.2%
same,Activity,[29],7.39%
same,inhibition of growth at 10 µM,[30],12.4%
same,Activity,[31],9.42%
